Experiments:
Format in all cases: biochemical
Wild-type cruzipain = Wild-type cruzipain (Trypanosoma cruzi, UniProt P25779); assay: Trypanosoma cruzi cruzipain peptidase activity assay (Ki); settings: read-out: Ki, inhibitors of cruzain and cruzipains
How it was run: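 Native cruzipain from T. cruzi Dm28 epimastigotes, 2.5 nM, in 100 mM sodium phosphate pH 6.75 with 1 mM EDTA and 10 mM L-cysteine, 25 °C, DMSO <1%. Rates taken from continuous fluorogenic substrate read; Ki by regression assuming reversible pure-competitive inhibition.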

human cathepsin L = molecular target: T1, human cathepsin L (Homo sapiens, UniProt P07711); assay: Cathepsin L peptidase activity assay (Ki); settings: read-out: Ki, inhibitors of cathepsin L
T1 construct: purchased CN Biosciences
T1 sequence (P07711 114-333): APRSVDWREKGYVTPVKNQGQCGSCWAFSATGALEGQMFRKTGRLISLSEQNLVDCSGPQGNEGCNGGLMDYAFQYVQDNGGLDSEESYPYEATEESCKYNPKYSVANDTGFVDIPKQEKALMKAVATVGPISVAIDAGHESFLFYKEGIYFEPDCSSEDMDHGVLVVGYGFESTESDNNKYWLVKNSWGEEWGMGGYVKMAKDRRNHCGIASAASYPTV
How it was run: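 Human cathepsin L at 1 nM with Ac-Phe-Arg-AMC at its KM^app (~20 μM) in 10 mM bis-tris-propane pH 6.5, 1 mM EDTA, 5 mM 2-mercaptoethanol, 1 mM CaCl2, DMSO <1%, 25±1° C. Reaction enzyme-initiated; AMC fluorescence (ex 365/em 450 nm) monitored over time.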

Bovine cathepsin S = molecular target: T2, Bovine cathepsin S (Bos taurus, UniProt P25326); assay: Cathepsin S peptidase activity assay, bovine enzyme (Ki); settings: species of cathepsin S not given; read-out: Ki, inhibitors of cathepsin S
T2 construct: purchased CN Biosciences
T2 sequence (P25326 115-331): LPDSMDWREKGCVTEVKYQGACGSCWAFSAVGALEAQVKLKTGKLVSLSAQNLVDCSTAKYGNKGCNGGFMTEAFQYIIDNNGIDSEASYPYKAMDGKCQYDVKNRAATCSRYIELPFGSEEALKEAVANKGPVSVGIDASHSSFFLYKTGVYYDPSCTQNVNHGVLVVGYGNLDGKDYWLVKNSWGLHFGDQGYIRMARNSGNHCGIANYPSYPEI
Description: Unless otherwise stated, all general chemicals and biochemicals were purchased from either the Sigma Chemical Company, Poole, Dorset, U.K or from Fisher Scientific UK, Loughborough, Leicestershire, U.K. Absorbance assays were carried out in flat-bottomed 96-well plates (Spectra; Greiner Bio-One Ltd., Stonehouse, Gloucestershire, U.K.) using a SpectraMax PLUS384 plate reader (Molecular Devices, Crawley, U.K.). Fluorescence high throughput assays were carried out in either 384-well microtitre plates (Corning Costar 3705 plates, Fisher Scientific) or 96-well ‘U’ bottomed Microfluor W1 microtitre plates (Thermo Labsystems, Ashford, Middlesex, U.K.). Fluorescence assays were monitored using a SpectraMax Gemini fluorescence plate reader (Molecular Devices). For substrates employing either a 7-amino-4-methylcoumarin (AMC) or a 7-amino-4-trifluoromethylcoumarin (AFC) fluorophore, assays were monitored at an excitation wavelength of 365 nm and an emission wavelength of 450 nm and the fluorescence plate reader calibrated with AMC. For substrates employing a 3-amino-benzoyl (Abz) fluorophore, assays were monitored at an excitation wavelength of 310 nm and an emission wavelength of 445 nm; the fluorescence plate reader calibrated with 3-amino-benzamide (Fluka). Unless otherwise indicated, all the peptidase substrates were purchased from Bachem UK, St Helens, Merseyside, UK. Substrates utilizing fluorescence resonance energy transfer methodology (i.e. FRET-based substrates) were synthesized at Incenta Limited using published methods (Atherton & Sheppard, Solid Phase Peptide Synthesis, IRL Press, Oxford, U.K, 1989) and employed Abz (2-aminobenzoyl) as the fluorescence donor and 3-nitro-tyrosine [Tyr(NO2)] as the fluorescence quencher (Meldal, M. and Breddam, K., Anal. Biochem, 195, 141-147, 1991). Hydroxyethylpiperazine ethanesulfonate (HEPES), tris-hydroxylmethyl aminomethane (tris) base, bis-tris-propane and all the biological detergents (e.g. CHAPS, zwittergents, etc.) were purchased from CN Biosciences UK, Beeston, Nottinghamshire, U.K. Glycerol was purchased from Amersham Pharmacia Biotech, Little Chalfont, Buckinghamshire, U.K. Stock solutions of substrate or inhibitor were made up to 10 mM in 100% dimethylsulfoxide (DMSO) (Rathburns, Glasgow, U.K.) and diluted as appropriately required. In all cases the DMSO concentration in the assays was maintained at less than 1% (vol./vol.).
Assay protocols were based on literature precedent (Table 4; Barrett, A. J., Rawlings, N. D. and Woessner, J. F., 1998, Handbook of Proteolytic Enzymes, Academic Press, London and references therein) and modified as required to suit local assay protocols. Enzyme was added as required to initiate the reaction and the activity, as judged by the change in fluorescence upon conversion of substrate to product, was monitored over time. All assays were carried out at 25±1° C.
Bovine cathepsin S, human cathepsin L, human cathepsin H and human cathepsin B were obtained from CN Biosciences. Recombinant human cathepsin S, human cathepsin K and human cathepsin X were obtained from Dr. Boris Turk (Josef Stefan Institute, Ljubljana, Slovenia). Unless otherwise stated, all peptidase activity assays were carried out in 10 mM bis-tris-propane (BTP), pH 6.5 containing 1 mM EDTA, 5 mM 2-mercaptoethanol and 1 mM CaCl2. Human cathepsin H activity assays were carried out in 10 mM BTP pH 6.5, 142 mM NaCl2, 1 mM CaCl2, 1 mM EDTA, 1 mM DTT, 0.035 mM Zwittergent 3-16. Human cathepsin K assays were carried out in 100 mM sodium acetate; pH 5.5 containing 20 mM L-cysteine and 1 mM EDTA (Bossard, M. J., et. al., J. Biol. Chem., 21, 12517-12524, 1996). Human cathepsin X assays were carried out in 100 mM sodium acetate; pH 5.5 containing 20 mM L-cysteine; 0.05% (w/v) Brij 35 and 1 mM EDTA (Santamaria, I., et. al., J. Biol. Chem., 273, 16816-16823, 1998; Klemencic, J, et al., Eur. J. Biochem., 267, 5404-5412, 2000).

CPB2.8ΔCTE = molecular target: T3, CPB2.8ΔCTE (Leishmania mexicana, UniProt P36400); assay: Leishmania mexicana cysteine protease B (CPB) peptidase activity assay (Ki); settings: Ki, inhibitors of Leismania mexicana CPB protease
T3 construct: Wild-type recombinant CPB without the C-terminal extention (i.e. CPB2.8ΔCTE); Dr. Jeremy Mottram (Wellcome Centre for Molecular Parasitology, University of Glasgow)
T3 sequence (P36400 126-343, stated change not applied): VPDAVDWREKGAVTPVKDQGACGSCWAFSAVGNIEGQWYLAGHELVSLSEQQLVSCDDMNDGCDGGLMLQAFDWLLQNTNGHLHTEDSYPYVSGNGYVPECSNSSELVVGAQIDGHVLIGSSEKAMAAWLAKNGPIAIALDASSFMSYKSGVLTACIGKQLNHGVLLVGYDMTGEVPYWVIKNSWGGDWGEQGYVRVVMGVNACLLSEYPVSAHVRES
How it was run: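 Recombinant CPB2.8ΔCTE (0.25 nM) was assayed in 100 mM sodium acetate pH 5.5 with 1 mM EDTA, 200 mM NaCl and 10 mM DTT at 25 °C, DMSO <1%, enzyme added to start. Rates were taken from continuous fluorescence slopes; apparent Ki was fitted assuming reversible, pure-competitive inhibition.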

Measured: Ki

Sequence of Wild-type cruzipain (P25779 whole entry): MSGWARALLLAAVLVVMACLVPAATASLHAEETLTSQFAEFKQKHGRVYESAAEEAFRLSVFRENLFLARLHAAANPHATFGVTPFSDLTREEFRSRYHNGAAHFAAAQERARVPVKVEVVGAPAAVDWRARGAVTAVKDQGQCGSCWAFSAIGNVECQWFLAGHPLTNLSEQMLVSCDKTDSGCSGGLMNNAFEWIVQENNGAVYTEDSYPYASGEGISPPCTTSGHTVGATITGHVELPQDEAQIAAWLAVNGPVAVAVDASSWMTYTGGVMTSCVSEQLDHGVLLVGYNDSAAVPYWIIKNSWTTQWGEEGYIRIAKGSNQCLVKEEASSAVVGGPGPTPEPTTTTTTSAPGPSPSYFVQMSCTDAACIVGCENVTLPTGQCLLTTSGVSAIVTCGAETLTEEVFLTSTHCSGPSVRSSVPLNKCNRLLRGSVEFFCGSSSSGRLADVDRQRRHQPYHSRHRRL

Cc1c(C(=O)N[C@@H](CC(C)C)C(=O)N2CC[C@@H]3[C@H]2C(=O)CN3C(=O)c2ccccc2)oc2ccccc12 [Example 10, (3aR,6aS)-3-Methyl-benzofuran-2-carboxylic acid [(1S)-1-(4-benzoyl-6-oxo-hexahydro-pyrrolo[3,2-b]pyrrole-1-carbonyl)-3-methyl-butyl]-amide]
< 5 µM: Wild-type cruzipain | human cathepsin L | Bovine cathepsin S

CC(C)C[C@H](NC(=O)c1cnc2ccccc2n1)C(=O)N1CC[C@@H]2[C@H]1C(=O)CN2C(=O)c1ccccc1 [Example 12, (3aR,6aS)-Quinoxaline-2-carboxylic acid [(1S)-1-(4-benzoyl-6-oxo-hexahydro-pyrrolo[3,2-b]pyrrole-1-carbonyl)-3-methyl-butyl]-amide]
< 5 µM: Wild-type cruzipain | human cathepsin L | Bovine cathepsin S

CC(C)C[C@H](NC(=O)c1cc2ccccc2o1)C(=O)N1CC[C@@H]2[C@H]1C(=O)CN2C(=O)c1cccnc1 [Example 16, (3aR,6aS)-Benzofuran-2-carboxylic acid {(1S)-3-methyl-1-[6-oxo-4-(pyridine-3-carbonyl)-hexahydro-pyrrolo[3,2-b]pyrrole-1-carbonyl]-butyl}-amide]
< 5 µM: all assays above

Cc1c(C(=O)N[C@@H](CC(C)C)C(=O)N2CC[C@@H]3[C@H]2C(=O)CN3C(=O)c2cccnc2)oc2ccccc12 [Example 17, (3aR,6aS)-3-Methyl-benzofuran-2-carboxylic acid {(1S)-3-methyl-1-[6-oxo-4-(pyridine-3-carbonyl)-hexahydro-pyrrolo[3,2-b]pyrrole-1-carbonyl]-butyl}-amide]
< 5 µM: all assays above

CC(C)C[C@H](NC(=O)OCc1ccccc1)C(=O)N1CC(=O)[C@@H]2[C@H]1CCN2C(=O)[C@H](CC(C)C)NC(=O)c1ccc(N(C)C)cc1 [Example 37, (3aS,6aR)-((1S)-1-{4-[(2S)-2-(4-Dimethylamino-benzoylamino)-4-methyl-pentanoyl]-3-oxo-hexahydro-pyrrolo[3,2-b]pyrrole-1-carbonyl}-3-methyl-butyl)-carbamic acid benzyl ester]
< 5 µM: all assays above

COc1cccc(C(=O)N2CC(=O)[C@@H]3[C@H]2CCN3C(=O)[C@H](CC(C)C)NC(=O)c2ccc(N(C)C)cc2)c1 [Example 65, (3aR,6aS)-4-Dimethylamino-N-{(1S)-1-[4-(3-methoxy-benzoyl)-6-oxo-hexahydro-pyrrolo[3,2-b]pyrrole-1-carbonyl]-3-methyl-butyl}-benzamide]
< 5 µM: all assays above

CC(C)C[C@H](NC(=O)c1ccc(N2CCOCC2)cc1)C(=O)N1CC[C@@H]2[C@H]1C(=O)CN2C(=O)c1ccccc1 [Example 85, (3aR,6aS)-N-[(1S)-1-(4-Benzoyl-6-oxo-hexahydro-pyrrolo[3,2-b]pyrrole-1-carbonyl)-3-methyl-butyl]-4-morpholin-4-yl-benzamide]
< 5 µM: all assays above

CC(C)C[C@H](NC(=O)c1ccc2ncccc2c1)C(=O)N1CC[C@@H]2[C@H]1C(=O)CN2C(=O)c1ccccc1 [Example 86, (3aR,6aS)-Quinoline-6-carboxylic acid [(1S)-1-(4-benzoyl-6-oxo-hexahydro-pyrrolo[3,2-b]pyrrole-1-carbonyl)-3-methyl-butyl]-amide]
< 5 µM: all assays above

CC(C)C[C@H](NC(=O)c1ccc2cc[nH]c2c1)C(=O)N1CC[C@@H]2[C@H]1C(=O)CN2C(=O)c1ccccc1 [Example 88, (3aR,6aS)-1H-Indole-6-carboxylic acid [(1S)-1-(4-benzoyl-6-oxo-hexahydro-pyrrolo[3,2-b]pyrrole-1-carbonyl)-3-methyl-butyl]-amide]
< 5 µM: all assays above

CC(C)C[C@H](NC(=O)c1ccc2[nH]ccc2c1)C(=O)N1CC[C@@H]2[C@H]1C(=O)CN2C(=O)c1ccccc1 [Example 89, (3aR,6aS)-1H-Indole-5-carboxylic acid [(1S)-1-(4-benzoyl-6-oxo-hexahydro-pyrrolo[3,2-b]pyrrole-1-carbonyl)-3-methyl-butyl]-amide]
< 5 µM: all assays above

CC(C)C[C@H](NC(=O)c1cccc(CN)c1)C(=O)N1CC[C@@H]2[C@H]1C(=O)CN2C(=O)c1ccccc1 [Example 92, (3aR,6aS)-3-Aminomethyl-N-[(1S)-1-(4-benzoyl-6-oxo-hexahydro-pyrrolo[3,2-b]pyrrole-1-carbonyl)-3-methyl-butyl]-benzamide]
< 5 µM: all assays above

CC(C)C[C@H](NC(=O)c1ccc(CN)cc1)C(=O)N1CC[C@@H]2[C@H]1C(=O)CN2C(=O)c1ccccc1 [Example 93, (3aR,6aS)-4-Aminomethyl-N-[(1S)-1-(4-benzoyl-6-oxo-hexahydro-pyrrolo[3,2-b]pyrrole-1-carbonyl)-3-methyl-butyl]-benzamide]
< 5 µM: all assays above

CC(C)C[C@H](NC(=O)c1ccc(N(C)C)cc1)C(=O)N1CC[C@@H]2[C@H]1C(=O)CN2C(=O)c1ccc2[nH]ccc2c1 [Example 98, (3aR,6aS)-4-Dimethylamino-N-{(1S)-1-[4-(1H-indole-5-carbonyl)-6-oxo-hexahydro-pyrrolo[3,2-b]pyrrole-1-carbonyl]-3-methyl-butyl}-benzamide]
< 5 µM: all assays above

CC(C)C[C@H](NC(=O)c1ccc(N(C)C)cc1)C(=O)N1CC[C@@H]2[C@H]1C(=O)CN2C(=O)[C@H](C)NC(=O)OCc1ccccc1 [Example 145, (3aS,6aR)-((1S)-2-{4-[(2S)-2-(4-Dimethylamino-benzoylamino)-4-methyl-pentanoyl]-3-oxo-hexahydro-pyrrolo[3,2-b]pyrrole-1-yl}-1-methyl-2-oxo-ethyl)-carbamic acid benzyl ester]
< 5 µM: all assays above

— patent publication US20060100431A1, “Biologically active compounds” (Amura Therapeutics Limited, priority 2002, published 2006)
